The source of these data is patent US9145426B2, “Pyrrolidine-fused thiadiazine dioxide compounds as BACE inhibitors, compositions, and their use” (Merck Sharp & Dohme Corp., priority 2011, dated 2015).

Test [1] has as its target purified human autoBACE-2 (Homo sapiens, UniProt Q9Y5Z0). The test can be described thus: BACE-2 Assay (BACE-HTRF assay). The class given is biochemical. To be noted: calculated from IC50 using the Cheng-Prusoff equation. How it is done:
DMSO was present at 5% final concentration in the assay. Following laser excitation of sample wells at 320 nm, the fluorescence signal at 620 nm was collected for 400 ms following a 50 μs delay on a RUBYstar HTRF plate reader (BMG Labtechnologies). […] The Ki values were calculated from the IC50 using the Cheng-Prusoff equation.

The target in test [2] is soluble human BACE1 catalytic domain (Homo sapiens (Human), UniProt P56817). The experiment in a line: BACE1 HTRF FRET Assay. Type of test: biochemical. Particulars: calculated from IC50 using the Cheng-Prusoff equation; read-out: BACE-1 Ki. The text has this:
Na^+-Acetate pH 5.0; 1% Brij-35; Glycerol; Dimethyl Sulfoxide (DMSO); Recombinant human soluble BACE1 catalytic domain (>95% pure); APP Swedish mutant peptide substrate (QSY7-APP^swe-Eu): QSY7-[…]-Europium-amide.
A homogeneous time-resolved FRET assay was used to determine IC50 values for inhibitors of the soluble human BACE1 catalytic domain. This assay monitored the increase of 620 nm fluorescence that resulted from BACE1 cleavage of an APPswedish APP^swe mutant peptide FRET substrate (QSY7-[…]-Europium-amide). This substrate contained an N-terminal QSY7 moiety that served as a quencher of the C-terminal Europium fluorophore (620 nm Em). In the absence of enzyme activity, 620 nm fluorescence was low in the assay and increased linearly over 3 hours in the presence of uninhibited BACE1 enzyme. Inhibition of BACE1 cleavage of the QSY7-APP^swe-Eu substrate by inhibitors was manifested as a suppression of 620 nm fluorescence.
Reactions were initiated by addition of 10 μl of 600 nM QSY7-APP^swe-Eu substrate (200 nM final) to give a final reaction volume of 30 μl in a 384 well Nunc HTRF plate. The reactions were incubated at 30° C. for 1.5 hours. The 620 nm fluorescence was then read on a Rubystar HTRF plate reader (BMG Labtechnologies) using a 50 […]s delay followed by a 400 millisecond acquisition time window. Inhibitor IC50 values were derived from non-linear regression analysis of concentration response curves.

Sequence of purified human autoBACE-2 (Q9Y5Z0 63-518 limits assumed): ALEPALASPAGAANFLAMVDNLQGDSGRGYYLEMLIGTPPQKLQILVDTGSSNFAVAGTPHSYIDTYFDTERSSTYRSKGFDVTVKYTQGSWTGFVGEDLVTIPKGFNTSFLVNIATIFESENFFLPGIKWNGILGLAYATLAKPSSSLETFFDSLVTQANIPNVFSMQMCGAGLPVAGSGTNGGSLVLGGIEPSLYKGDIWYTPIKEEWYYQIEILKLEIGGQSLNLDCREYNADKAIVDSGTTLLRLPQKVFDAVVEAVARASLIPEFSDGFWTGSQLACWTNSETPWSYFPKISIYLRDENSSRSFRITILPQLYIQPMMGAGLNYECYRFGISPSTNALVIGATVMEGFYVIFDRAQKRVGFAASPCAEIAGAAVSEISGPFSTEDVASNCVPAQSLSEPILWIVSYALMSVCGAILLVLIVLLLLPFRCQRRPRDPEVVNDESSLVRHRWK
Sequence of soluble human BACE1 catalytic domain (P56817 75-416): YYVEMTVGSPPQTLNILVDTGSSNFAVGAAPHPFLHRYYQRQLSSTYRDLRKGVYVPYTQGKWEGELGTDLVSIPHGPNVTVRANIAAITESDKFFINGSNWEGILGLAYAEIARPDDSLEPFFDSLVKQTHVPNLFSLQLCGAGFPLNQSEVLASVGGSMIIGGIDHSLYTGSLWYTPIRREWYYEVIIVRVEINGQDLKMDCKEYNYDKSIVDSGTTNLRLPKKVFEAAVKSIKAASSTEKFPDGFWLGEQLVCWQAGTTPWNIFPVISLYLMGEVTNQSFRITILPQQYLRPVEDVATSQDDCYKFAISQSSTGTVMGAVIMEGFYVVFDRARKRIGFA

On to `COc1nc(N2C[C@@H]3[C@](c4ccccc4F)(C2)NC(=N)N(C)S3(=O)=O)nc(C)c1F` (stereo in doubt) [Ex. 4], for which the Ki (usually the dissociation constant of the complex between target and ligand, obtained from inhibition or displacement) in test [1] is 5.4 nM.
For the compound `CCOCc1cc(OC)nc(N2CC3C(c4ccccc4)(C2)NC(=N)N(C)S3(=O)=O)c1` (racemic) [Ex. 11], the Ki in test [2] was 61 nM.
With `CCc1nc(N2CC3C(c4ccccc4)(C2)NC(=N)N(C)S3(=O)=O)nc(OC)c1F` (racemic) [Ex. 15], the Ki in test [2] is 82 nM.
With `COc1nc(N2C[C@@H]3[C@](c4cc(F)c(F)cc4F)(C2)NC(=N)N(C)S3(=O)=O)nc(C)c1F` (stereo in doubt) [Ex. 5], the Ki in test [2] is 32 nM; in test [1], 19 nM.
With `COCc1cc(OC)nc(N2CC3[C@](c4cc(F)c(F)cc4F)(C2)NC(=N)N(C)S3(=O)=O)c1` (some centres unmarked) [Ex. 7], the Ki was 7 nM in test [2] and 3.2 nM in test [1].
In the same order, the values of `COCc1cc(OC)nc(N2CC3[C@](c4ccccc4F)(C2)NC(=N)N(C)S3(=O)=O)c1` (some centres unmarked) [Ex. 8] are 7 nM and 5 nM.
Regarding `COc1nc(N2C[C@@H]3[C@](c4ccccc4)(C2)NC(=N)N(C)S3(=O)=O)nc(C)c1F` [Ex. 1], the Ki in test [1] was 16 nM.
Same read-out and setting: under `COc1nc(N2C[C@@H]3[C@](c4cc(F)ccc4F)(C2)NC(=N)N(C)S3(=O)=O)nc(C)c1F` (stereo in doubt) [Ex. 3] stands 14 nM.
As for `COc1nc(N2CC3[C@](c4ccc(F)cc4F)(C2)NC(=N)N(C)S3(=O)=O)nc(C)c1F` (some centres unmarked) [Ex. 6], the Ki in test [1] is 8.5 nM.
For `COc1nc(N2C[C@@H]3[C@](c4ccc(F)cc4)(C2)NC(=N)N(C)S3(=O)=O)nc(C)c1F` (stereo in doubt) [Ex. 2], in test [1], the inhibitory constant (Ki) is 14 nM.
With `CC(=O)N1CC2[C@](c3cc(NC(=O)c4ccc(F)cn4)ccc3F)(C1)NC(=N)N(C)S2(=O)=O` (mixture of isomers) [Ex. 18], the Ki in test [2] was 32 nM; in test [1] it was 3.2 nM.
Regarding `COCc1cc(OC)nc(N2C[C@@H]3[C@](c4cc(F)ccc4F)(C2)NC(=N)N(C)S3(=O)=O)c1` (stereo in doubt) [Ex. 9], the Ki in test [1] is 1.7 nM.
In the case of `COc1nc(N2CC3C(c4ccccc4)(C2)NC(=N)N(C)S3(=O)=O)nc(OC)c1F` (racemic) [Ex. 13], the Ki in test [2] is 30 nM.
In the case of `COc1nc(N2CC3[C@](c4cc(NC(=O)c5ccc(F)cn5)ccc4F)(C2)NC(=N)N(C)S3(=O)=O)nc(C)c1F` (mixture of isomers) [Ex. 19], the Ki in test [2] is 1.2 nM; in test [1] it was 1.6 nM.
For `Cc1cccc(N2CC3C(c4ccccc4)(C2)NC(=N)N(C)S3(=O)=O)c1` (racemic) [Ex. 17], in test [2], the Ki was 1560 nM.
